Source: article PMC3368886, “ATPase Cycle and DNA Unwinding Kinetics of RecG Helicase” (PLoS ONE, 2012)

What was measured:
Type in all cases: biochemical
[1] = target: T1, RecG (Thermotoga maritima, UniProt Q9WY48); experiment: ATP hydrolysis during unwinding (phosphate biosensor, heparin trap); details: 200 nM 4-strand complementary junction, 10 nM RecG, 200 µM ATP
T1 construct: made in house
T1 sequence (Q9WY48 1-780): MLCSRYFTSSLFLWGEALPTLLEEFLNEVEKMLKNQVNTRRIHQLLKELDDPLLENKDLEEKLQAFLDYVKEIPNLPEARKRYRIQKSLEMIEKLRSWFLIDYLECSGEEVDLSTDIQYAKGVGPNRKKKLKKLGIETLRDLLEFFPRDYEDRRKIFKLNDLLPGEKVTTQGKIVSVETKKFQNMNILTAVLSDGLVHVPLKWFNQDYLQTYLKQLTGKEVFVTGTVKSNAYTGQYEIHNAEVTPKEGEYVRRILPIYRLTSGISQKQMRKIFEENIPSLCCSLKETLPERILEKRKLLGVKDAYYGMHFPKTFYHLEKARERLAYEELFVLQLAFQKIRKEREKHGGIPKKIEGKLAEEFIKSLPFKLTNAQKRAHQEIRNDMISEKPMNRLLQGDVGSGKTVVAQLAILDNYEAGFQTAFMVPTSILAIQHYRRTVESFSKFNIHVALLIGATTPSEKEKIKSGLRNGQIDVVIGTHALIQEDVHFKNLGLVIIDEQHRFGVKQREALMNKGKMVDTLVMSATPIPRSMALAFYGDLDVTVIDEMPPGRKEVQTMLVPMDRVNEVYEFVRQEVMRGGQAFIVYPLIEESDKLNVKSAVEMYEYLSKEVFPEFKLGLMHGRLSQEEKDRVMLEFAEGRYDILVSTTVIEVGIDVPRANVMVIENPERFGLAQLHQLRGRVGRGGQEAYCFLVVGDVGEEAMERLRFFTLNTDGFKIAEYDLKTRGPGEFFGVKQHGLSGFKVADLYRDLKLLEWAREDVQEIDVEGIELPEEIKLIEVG
Procedure: The rate of ATP hydrolysis and total ATP usage during unwinding were measured using the phosphate biosensor (Figure 8), following rapid mixing of ATP with the RecG⋅DNA complex. […] Heparin is a potent inhibitor of many helicases, mimicking the DNA substrate and binding tightly to the enzyme, once the latter dissociates from the DNA, and so prevents rebinding of the helicase to fresh DNA substrates. The initial, rapid phase, which represents unwinding of the first DNA junction, was unaffected by the presence of heparin. […] RecG will continue to hydrolyze ATP while bound to the DNA substrate.
Figure 8 ATP hydrolysis during unwinding 4-strand complementary junctions. Junctions of varying arm lengths (shown in b.p.) were used to measure the rate of ATP hydrolysis during unwinding. RecG was pre-incubated with junction and the reactions were initiated by rapid mixing with ATP and heparin. […]
The ATPase measurement was repeated with different lengths of lagging and leading strands, as used in the unwinding measurements, in the presence of heparin (Figure 8 main panel). […] The ATPase rate measured here is similar to the steady-state and hydrolysis rate constants measured in the above sections, supporting the idea that the ATP hydrolysis reaction is not greatly affected by the type of junction.

[2] = target: T2, RecG⋅DNA(A40:B40) (Thermotoga maritima, UniProt Q9WY48); experiment: Quench-flow measurement of cleavage step (mantADP formation, HPLC)
T2 construct: made in house
T2 sequence (Q9WY48 1-780): T1 sequence (Q9WY48 1-780)
Procedure: Single turnover measurements of the cleavage step and Pi release were performed with excess RecG⋅DNA over mantATP using conditions of the mantATP fluorescence measurements, described above. Quench-flow measurements allowed the formation of nucleoside diphosphate to be monitored with high time resolution. MantATP was rapidly mixed with excess RecG⋅DNA, and the reaction mix was quenched in acid at particular time points. The mix was then analyzed by HPLC to quantify mantATP and mantADP, giving the time course of mantADP formation (Figure 4A). This time course had similar kinetics to the slow phase of the mant fluorescence trace (0.2 s^−1), supporting the idea that this phase is mantADP formation.
These were carried out using a HiTech RQF-63 apparatus using different length loops and flow rates to age reactions before quenching using 10% perchloric acid. Samples were analyzed for the ratio of mantATP to mantADP by HPLC, as described.

[3] = target: T1, RecG; experiment: mantATP cleavage (acid quench) and Pi release in the absence of DNA
Procedure: As done for the RecG⋅DNA complex, measurements were also taken with an excess of RecG over mantATP (Figure S3B). A large, relative rapid, increase in mant fluorescence was observed followed by a small gradual increase. The rate constants are consistent with those at excess mantATP. Under the same conditions of excess RecG over mantATP, mantATP cleavage (acid quench) and Pi release were measured (Figure S3B). […] The cleavage step rate constant was 4×10^−4 s^−1, ∼10^3 slower than in the presence of DNA. […] The cleavage step was greatly stimulated by DNA.
Supplementary file pone.0038270.s003.tif: Figure S3 Kinetic measurements in the absence of DNA. (A) Association kinetics with mantATP. Dependence of the observed rate constants on mantATP concentration from mixing 0.5 µM RecG with excess mantATP under the same conditions as Figure 3. Points shown are typically an average of three individual measurements. The best linear fit gives a slope of 0.4 (±0.15) µM^−1 s^−1 and intercept 1.7 (±0.6) s^−1. (B) Fluorescence trace upon mixing 2.5 µM RecG with 0.5 µM mantATP under the conditions of Figure 4. […] Note that as the fluorescence slowly increases beyond the time course, it was not possible to calibrate the ordinate. […] Pi release kinetics (continuous line) were measured for the same mixture containing 10 µM MDCC-PBP. […]

SMILES	rate of ATP hydrolysis during unwinding phase [1] [s⁻¹]	rate of mantADP formation (quench-flow time course) ([2]; 0.5 µM mantATP, 2.5 µM RecG, 5 µM DNA) [s⁻¹]	hydrolytic cleavage slower than ATP ([2]; mantATP vs ATP) [fold]	cleavage step rate constant ([3]; absence of DNA, excess RecG over mantATP) [s⁻¹]	cleavage slower than in the presence of DNA ([3]; absence vs presence of DNA)
Nc1ncnc2c1ncn2[C@@H]1O[C@H](COP(=O)(O)OP(=O)(O)OP(=O)(O)O)[C@@H](O)[C@H]1O [ATP]	5.8	–	–	–	–
CNc1ccccc1C(=O)O[C@H]1[C@@H](O)[C@H](n2cnc3c(N)ncnc32)O[C@@H]1COP(=O)(O)OP(=O)(O)OP(=O)(O)O [mantATP, 2′(3′)-O-(N-methylanthraniloyl)ATP]	–	0.2	~10	0.0004	~10^3
